# Experimental data as given in a melting point compilation (Tetko et al.; mined from patent text by program, amines drawn as free bases though some values may be those of a salt).
row,melting point [°C],SMILES
1,294 to 296,COc1cc(OC)c(S(=O)(=O)Cl)cc1-c1nc2nccnc2[nH]1
2,124 to 127,CC(=O)OC[C@@H]1C=C[C@H](n2cnc3c(Cl)nc(N)nc32)C1
3,96 to 97,CCOC(=O)c1cn(Cc2ccc(Oc3ccccc3)cc2)nc1OCc1nc(-c2ccccc2)oc1C
4,194 to 196,CCOC(=O)c1cn(C2CC2)c2cc(N3C[C@@H](C)N[C@@H](C)C3)c(F)c(N)c2c1=O
5,105 to 106,COc1ccc(OCCCCCBr)c(C2Sc3cc(Cl)ccc3N(C)C2=O)c1 (stereo not drawn)
6,28 to 31,COc1cccc2ncoc12
7,136,O=S(=O)(NCCc1ccc(OCc2nnn[nH]2)cc1)c1ccc(Cl)cc1
8,220 to 223,CNC(=O)NC1CCC(=O)c2ccccc21 (stereo not drawn)
9,138 to 140,CC(=O)c1cn(S(=O)(=O)c2ccccc2)c2nccc(-c3ccccc3)c12
10,125 to 126,COc1ccc2c(C)c(-c3c(OC)cccc3OC(C)=O)c(=O)oc2c1
11,> 250,Nc1cc(O)nc2c(-c3ccncc3)c(-c3ccc(F)cc3)nn12
12,108 to 109,Brc1ccc2c(c1)/C(=C\CN1CCCC1)c1ccccc1CO2
13,188 to 189,CCOc1ccc(C(=NO)c2ccc(OC)c(Cl)c2Cl)c(F)c1
14,153 to 155,CCC(NC(=NC#N)Nc1cccnc1)c1cccc(Cl)c1 (stereo not drawn)
15,90 to 92,CCOC(=O)CCOc1cccc2c1CCC2=O
16,175,CCCCOc1ccc(S(=O)(=O)C2(C(=O)O)CCN(Cc3cccc(OC)c3)CC2)cc1
17,107,CCCCCC1CCC(C2CCC(CC(=O)CC)CC2)CC1 (stereo not drawn)
18,115,Cc1nn(-c2ccc(Cl)cc2F)c(=O)[nH]1
19,148 to 150,Cc1noc(NS(=O)(=O)c2cc(Cl)ccc2Cl)c1Br
20,151,COC(=O)C1(C(=O)OC)CN(C(=O)OC(C)(C)C)c2cc([N+](=O)[O-])c3ccccc3c21
21,148,CCCCN1CCC(CNC(=O)c2cc(Cl)c(NC)n3ccnc23)CC1
22,103 to 105,CN(CC(=O)O)C(=O)Nc1ccc(Cl)c(Cl)c1
23,106 to 107,CCCOC1=CC(=O)C(C(=O)OCC)C(c2ccc(C)cc2)C1 (stereo not drawn)

row,melting point [°C],SMILES
1,256 to 260,Cn1c([N+](=O)[O-])cnc1-c1nc2ccccc2c(=O)[nH]1
2,147 to 149,Nc1cc(C(F)(F)F)nc(C(F)(F)F)c1
3,134 to 135,CCOC(=O)C(=C1SCSCS1)c1ccc(Oc2ccccc2)cc1
4,131 to 135,CC(C)NCC(O)COc1ccc(C2=NNC(=O)CC2)c2ccccc12 (stereo not drawn)
5,120 to 121,CC[C@@H](c1ccc(C(F)(F)F)cc1)N(Cc1ccc(C(=O)OC)cc1)S(=O)(=O)c1ccc(Cl)cc1
6,162 to 166,N#Cc1cc(=O)c2ccc(CBr)cc2o1
7,101 to 104,CN(C)Cc1ccc(CSCCNC2=NS(=O)(=O)C(C(=O)N(C)C)=C2N)o1
8,117 to 120,CC(=O)Nc1cccc(NC(=O)c2cccc(S(=O)(=O)N3CCCCCC3)c2)c1
9,204 to 205,Cc1n[nH]c(=O)n1-c1ccc(OC(F)(F)C(F)F)cc1
10,45 to 47,CCCCCCCCCN1C(=O)C=CC1=O
11,212 to 215,Cc1cc(C(=O)O)c(N)cc1Cl
12,136 to 137,Cn1nc(-c2ccc(F)cc2)c(-c2ccncc2)c1C=CCc1ccccc1
13,206 to 207,CCC(C)c1c(O)ccc2c1oc1ccc(C#N)cc12 (stereo not drawn)
14,136 to 137,COc1ccc(CC2C(=O)N(Cc3ccccc3)c3ccccc3N=C2C)cc1 (stereo not drawn)
15,80 to 85,CC(=O)O[C@@H](C)C(=O)Nc1c(C(=O)c2ccccc2)[nH]c2cc(Cl)ccc12
16,159 to 162,COc1cc(N)c(Cl)cc1C(=O)NCC1CCN(CCCCCCNC(=O)c2ccccc2)CC1
17,218 to 220,CCc1[nH]n(C2CCCC2)c2nc(Cc3ccc(OCC(=O)O)cc3)nc(=O)c1-2
18,102 to 103,CC(C)(C)c1cccc(C[C@H](N)[C@H](O)c2cccc(Cl)c2)c1 (racemic)
19,107 to 109,CCN(CC)CCNC(=O)c1cccc2nc3cc(Br)ccc3nc12
20,217 to 218,CC(=O)NC(Cc1ccccc1)C(=O)Nc1c(C)cccc1C (stereo not drawn)
21,136 to 138,CC(=O)NCC1CC1c1c(-c2cccnc2)ccc2nn(C)cc12 (stereo not drawn)
22,241 to 242,CC1(C)OC(=O)Nc2ccc(-c3ccc(C#N)[nH]3)cc21
23,119 to 121,CCN(CC)c1ccncc1NC(=S)NC1CCCCC1

row,melting point [°C],SMILES
1,296 to 298,Cc1ccc2c(c1)C(O)=C(C(=O)Nc1cncc(Cl)n1)N(C)S2(=O)=O
2,101 to 102,COc1cccc(CC(=O)O)c1OCCCc1cc(C(C)C)nn1Cc1ccc(Cl)cc1Cl
3,223 to 224,Cc1c(-c2ccccc2)c2cc(Cl)ccc2n1CC(N)=O
4,162 to 163,NC(=O)NCC1CCCc2cc(NS(=O)(=O)c3cccc(F)c3)ccc21 (stereo not drawn)
5,223 to 225,O=C(NC(O)C(Cl)(Cl)Cl)c1cc([N+](=O)[O-])ccc1O (stereo not drawn)
6,218 to 220,CCNc1ccc2nc(Cl)c(S(N)(=O)=O)n2n1
7,105 to 106,CCCCCCCCCCCCCC(CP(c1ccccc1)c1ccccc1)C(C)CP(c1ccccc1)c1ccccc1 (stereo not drawn)
8,138 to 142,O=S(=O)(NC1CCC(O)CC1)c1ccc(Cl)cc1 (stereo not drawn)
9,246 to 249,O=C(O)Cc1c(C(=O)c2ccc(-c3cccs3)cc2)[nH]c2cc(Cl)ccc12
10,277 to 284,COc1cc(OC)nc(Oc2cc(C)nc(-c3ccccc3)c2C(=O)O)n1
11,55 to 57,CCCC(=O)NCCc1cccc2ccc(SC)cc12
12,265 to 266,Clc1ccc2nc(Cl)c3[nH]c4ccccc4c3c2c1
13,83 to 86,Cn1c(C(F)(F)F)c(Cl)c(=O)n(-c2ccc(Cl)c3nc(C(C)(C)C)oc23)c1=O
14,130 to 135,CC(C)(C)CNc1cc(Cl)nc(N2CCCC2)n1
15,219 to 221,CC1(C)CCc2c(N3CCSCC3)nc3sc4c(NCCCN5CCCC5=O)ncnc4c3c2C1
16,174 to 175,Cc1cc(OCC(=O)Nc2cc(C(=O)O)ccc2Cl)ccc1C(C)C
17,98 to 100,CC(C)C1(C)C(=O)N=C2c3ccccc3C(=O)N21 (stereo not drawn)
18,> 305,Cc1[nH]c(=O)c(C#N)cc1C(=O)c1ccncc1
19,130 to 134,O=C(NOC1CCCCO1)c1ccccc1 (stereo not drawn)
20,132 to 133,Cc1cc2c(s1)Oc1ccccc1N=C2N1CCN(C)CC1
21,130 to 133,O=C(N1CCC2(C=Cc3ccccc32)CC1)N1CCCc2ccccc21
22,198 to 201,O=[N+]([O-])c1ccc2c(c1)S(=O)(=O)NCN2C1CC1

row,SMILES,melting point [°C]
1,O=C(CCN1CCC2(CC1)OC(=O)c1ccccc12)c1ccccc1,108 to 110
2,COc1ccc(C(C)(C)O)cc1CN[C@H]1CN2CC[C@H]1[C@H](C(=O)O)[C@@H]2C(c1ccccc1)c1ccccc1,150 to 153
3,OCC(O)COCc1nnc2n1-c1ccc(Cl)cc1C(c1ccccc1)=NC2 (stereo not drawn),130 to 134
4,CN(C)Cc1nc(-c2ncn3c2[C@@H]2CCN2C(=O)c2cc(F)ccc2-3)no1,150 to 155
5,COc1cc(N(C)C)ccc1C(=O)NC1CCN(C(C)CC(C(=O)N(C)C)(c2ccccc2)c2ccccc2)CC1O (stereo not drawn),211
